Data published in ChEMBL document CHEMBL4680273, “Teixobactin: A Paving Stone toward a New Class of Antibiotics?” (2020).
Converted amounts (≈) assume the structure as drawn. One block for each molecule: values may come before it.

How the values were obtained:
Assay type in all cases: functional
Staphylococcus aureus [1] = experiment: Antibacterial activity against methicillin resistant Staphylococcus aureus ATCC 33591 incubated for 24 hrs
Bacillus subtilis [2] = experiment: Antibacterial activity against Bacillus subtilis 168 incubated for 24 hrs
Staphylococcus aureus [3] = experiment: Antibacterial activity against Staphylococcus aureus ATCC 29213
Staphylococcus aureus [4] = experiment: Antibacterial activity against methicillin- resistant Staphylococcus aureus SA86
Staphylococcus aureus [5] = experiment: Antibacterial activity against methicillin resistant Staphylococcus aureus
Staphylococcus aureus [6] = experiment: Antibacterial activity against Staphylococcus aureus ATCC 29213 by CLSI-based broth microdilution method
Bacillus subtilis [7] = experiment: Antibacterial activity against Bacillus subtilis ATCC 6051 incubated for 24 hrs by CLSI based broth microdilution method
Staphylococcus aureus [8] = experiment: Antibacterial activity against Staphylococcus aureus ATCC 29213 incubated for 24 hrs by CLSI-based broth microdilution method

Compound: CC[C@H](C)[C@H](NC(=O)[C@@H](Cc1ccccc1)NC)C(=O)N[C@@H](CO)C(=O)N[C@H](CCC(N)=O)C(=O)N[C@@H](C(=O)N[C@H](C(=O)N[C@@H](CO)C(=O)N[C@H]1C(=O)N[C@@H](C)C(=O)N[C@@H](CCCCN)C(=O)N[C@@H]([C@@H](C)CC)C(=O)O[C@H]1C)[C@@H](C)CC)[C@@H](C)CC
MIC (Staphylococcus aureus [1]): 1 µg/mL (≈ 0.822 µM)
MIC (Bacillus subtilis [2]): 0.25 µg/mL (≈ 0.206 µM)

Compound: CC[C@H](C)[C@H](NC(=O)[C@@H](Cc1ccccc1)NC)C(=O)N[C@@H](CO)C(=O)N[C@H](CCC(N)=O)C(=O)N[C@@H](C(=O)N[C@H](C(=O)N[C@@H](CO)C(=O)N[C@H]1C(=O)N[C@@H](C)C(=O)NC(CCCN)C(=O)N[C@@H](C(C)C)C(=O)O[C@H]1C)[C@@H](C)CC)[C@@H](C)CC (some centres not stated)
MIC (Staphylococcus aureus [3]): 8 µg/mL (≈ 6.73 µM)
MIC (Staphylococcus aureus [4]): 8 µg/mL (≈ 6.73 µM)

Compound: CC[C@H](C)[C@H](NC(=O)[C@@H](Cc1ccccc1)NC)C(=O)N[C@@H](CO)C(=O)N[C@H](CCC(N)=O)C(=O)N[C@@H](C(=O)N[C@H](C(=O)N[C@@H](CO)C(=O)N[C@H]1C(=O)N[C@@H](C)C(=O)N[C@@H](CCCN)C(=O)N[C@@H]([C@@H](C)CC)C(=O)O[C@H]1C)[C@@H](C)CC)[C@@H](C)CC
MIC (Staphylococcus aureus [1]): 2 µg/mL (≈ 1.66 µM)
MIC (Bacillus subtilis [2]): 0.25 µg/mL (≈ 0.208 µM)

Compound: CC[C@H](C)[C@H](NC(=O)[C@@H](Cc1ccccc1)NC)C(=O)N[C@@H](CO)C(=O)N[C@H](CCCNC(=N)N)C(=O)N[C@@H](C(=O)N[C@H](C(=O)N[C@@H](C)C(=O)N[C@H]1C(=O)N[C@@H](C)C(=O)N[C@@H](CCCNC(=N)N)C(=O)N[C@@H]([C@@H](C)CC)C(=O)O[C@H]1C)[C@@H](C)CC)[C@@H](C)CC
MIC (Staphylococcus aureus [5]): 1 µg/mL (≈ 0.796 µM)
MIC (Staphylococcus aureus [6]): 2 µg/mL (≈ 1.59 µM)

MIC (Staphylococcus aureus [6]): 2 µg/mL (≈ 1.63 µM)
Compound: CC[C@H](C)[C@H](NC(=O)[C@H](N)Cc1ccccc1)C(=O)N[C@@H](CO)C(=O)N[C@H](CCC(N)=O)C(=O)N[C@@H](C(=O)N[C@H](C(=O)N[C@@H](CO)C(=O)N[C@H]1C(=O)N[C@@H](C)C(=O)N[C@@H](CCCNC(=N)N)C(=O)N[C@@H]([C@@H](C)CC)C(=O)O[C@H]1C)[C@@H](C)CC)[C@@H](C)CC

MIC (Bacillus subtilis [7]): 1 µg/mL (≈ 0.814 µM)
MIC (Staphylococcus aureus [8]): 4 µg/mL (≈ 3.26 µM)
Compound: CC[C@H](C)[C@H](NC(=O)[C@@H](Cc1ccccc1)NC)C(=O)N[C@@H](CO)C(=O)N[C@H](CCCCN)C(=O)N[C@@H](C(=O)N[C@H](C(=O)N[C@@H](C)C(=O)N[C@H]1C(=O)N[C@@H](C)C(=O)N[C@@H](CCCNC(=N)N)C(=O)N[C@@H]([C@@H](C)CC)C(=O)O[C@H]1C)[C@@H](C)CC)[C@@H](C)CC

MIC (Staphylococcus aureus [6]): 32 µg/mL (≈ 25.4 µM)
Compound: CC[C@H](C)[C@H](NC(=O)[C@H](NC(=O)[C@@H](CCC(N)=O)NC(=O)[C@H](CO)NC(=O)[C@@H](NC(=O)[C@H](Cc1ccccc1)N(C)C)[C@@H](C)CC)[C@@H](C)CC)C(=O)N[C@@H](CO)C(=O)N[C@H]1C(=O)N[C@@H](C)C(=O)N[C@@H](CCCNC(=N)N)C(=O)N[C@@H]([C@@H](C)CC)C(=O)O[C@H]1C

MIC (Bacillus subtilis [7]): 0.25 µg/mL (≈ 0.194 µM)
MIC (Staphylococcus aureus [8]): 4 µg/mL (≈ 3.11 µM)
Compound: CC[C@H](C)[C@H](NC(=O)[C@@H](Cc1ccccc1)NC)C(=O)N[C@@H](CCCCN)C(=O)N[C@H](CCC(N)=O)C(=O)N[C@@H](C(=O)N[C@H](C(=O)N[C@@H](CO)C(=O)N[C@H]1C(=O)N[C@@H](C)C(=O)N[C@@H](CCCNC(=N)N)C(=O)N[C@@H]([C@@H](C)CC)C(=O)O[C@H]1C)[C@@H](C)CC)[C@@H](C)CC

MIC (Staphylococcus aureus [8]): 16 µg/mL (≈ 12.7 µM)
Compound: CC[C@H](C)[C@H](NC(=O)[C@@H](Cc1ccccc1)N(C)C)C(=O)N[C@@H](CO)C(=O)N[C@H](CCC(N)=O)C(=O)N[C@@H](C(=O)N[C@H](C(=O)N[C@@H](CO)C(=O)N[C@H]1C(=O)N[C@@H](C)C(=O)N[C@@H](CCCNC(=N)N)C(=O)N[C@@H]([C@@H](C)CC)C(=O)O[C@H]1C)[C@@H](C)CC)[C@@H](C)CC

Compound: CC[C@H](C)[C@H](NC(=O)[C@H](Cc1ccccc1)NC)C(=O)N[C@@H](CO)C(=O)N[C@H](CCC(N)=O)C(=O)N[C@@H](C(=O)N[C@H](C(=O)N[C@@H](CO)C(=O)N[C@H]1C(=O)N[C@@H](C)C(=O)N[C@@H](CCCNC(=N)N)C(=O)N[C@@H]([C@@H](C)CC)C(=O)O[C@H]1C)[C@@H](C)CC)[C@@H](C)CC
MIC (Staphylococcus aureus [8]): 2 µg/mL (≈ 1.61 µM)

Compound: CC[C@H](C)[C@H](NC(=O)[C@@H](Cc1ccccc1)NC)C(=O)N[C@@H](CO)C(=O)N[C@H](CC(N)=O)C(=O)N[C@@H](C(=O)N[C@H](C(=O)N[C@@H](C)C(=O)N[C@H]1C(=O)N[C@@H](C)C(=O)N[C@@H](CCCNC(=N)N)C(=O)N[C@@H]([C@@H](C)CC)C(=O)O[C@H]1C)[C@@H](C)CC)[C@@H](C)CC
MIC (Staphylococcus aureus [5]): 0.5 µg/mL (≈ 0.412 µM)
MIC (Staphylococcus aureus [6]): 2 µg/mL (≈ 1.65 µM)

Compound: CC[C@H](C)[C@H](NC(=O)[C@@H](Cc1ccccc1)NC)C(=O)N[C@@H](CO)C(=O)N[C@H](CCC(N)=O)C(=O)N[C@@H](C(=O)N[C@H](C(=O)N[C@@H](CO)C(=O)N[C@H]1C(=O)N[C@@H](C)C(=O)N[C@@H](CCNC(=N)N)C(=O)N[C@@H]([C@@H](C)CC)C(=O)O[C@H]1C)[C@@H](C)CC)[C@@H](C)CC
MIC (Staphylococcus aureus [1]): 1 µg/mL (≈ 0.813 µM)
MIC (Bacillus subtilis [2]): 0.5 µg/mL (≈ 0.406 µM)

Compound: CC[C@H](C)[C@H](NC(=O)[C@@H](Cc1ccccc1)NC)C(=O)N[C@@H](CO)C(=O)N[C@H](CCC(N)=O)C(=O)N[C@@H](C(=O)N[C@H](C(=O)N[C@@H](CO)C(=O)N[C@H]1C(=O)N[C@@H](C)C(=O)NC(CCCN)C(=O)N[C@@H]([C@@H](C)CC)C(=O)O[C@H]1C)[C@@H](C)CC)C(C)C (some centres not stated)
MIC (Staphylococcus aureus [3]): 8 µg/mL (≈ 6.73 µM)
MIC (Staphylococcus aureus [4]): 16 µg/mL (≈ 13.5 µM)
